From PubChem BioAssay (NCI)
Values joined by “and” are separate entries in the source; they are usually repeats but may differ in a detail not shown here. Equal entries are not always repeated.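 Interpolation was linear, between the two tested concentrations surrounding the appropriate level; five concentrations were tested over 48 hours in 96-well plates. Abbreviation: GI50, concentration required for 50% inhibition of growth. TGI: total growth inhibition.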

Assays:
Assay in all cases: NCI tumour cell line growth inhibition, 48 h
PC-3 prostate = system: PC-3 prostate
NCI-H226 lung = system: NCI-H226 lung
MDA-MB-435 = system: MDA-MB-435
SK-MEL-28 melanoma = system: SK-MEL-28 melanoma
U251 CNS = system: U251 CNS
HOP-92 NSCLC = system: HOP-92 NSCLC
MDA-MB-231 breast = system: MDA-MB-231 breast
SR leukemia = system: SR leukemia
SF-539 CNS = system: SF-539 CNS
NCI-H23 lung = system: NCI-H23 lung

Row | SMILES | GI50 (PC-3 prostate) | TGI (PC-3 prostate) | GI50 (NCI-H226 lung) | TGI (NCI-H226 lung) | GI50 (MDA-MB-435) | TGI (MDA-MB-435) | GI50 (SK-MEL-28 melanoma) | TGI (SK-MEL-28 melanoma) | GI50 (U251 CNS) | TGI (U251 CNS) | GI50 (HOP-92 NSCLC) | TGI (HOP-92 NSCLC) | GI50 (MDA-MB-231 breast) | TGI (MDA-MB-231 breast) | GI50 (SR leukemia) | TGI (SR leukemia) | GI50 (SF-539 CNS) | TGI (SF-539 CNS) | GI50 (NCI-H23 lung) | TGI (NCI-H23 lung)
1 | O=C(/C=C/c1ccccc1)c1cccc2ccccc12 | 2.81 µM | 7.78 µM | 1.99 µM | 6.32 µM | 2.64 µM | 14.7 µM | 5.02 µM | 16.6 µM | 2.14 µM | 6.02 µM | 2.05 µM | 6.8 µM | 4.16 µM | 18.3 µM | 1.17 µM | 3.75 µM | 3.5 µM | 11 µM | 3.19 µM | 11.9 µM
2 | C[C@]12CC[C@H](O[C@@H]3O[C@H](CO[C@@H]4O[C@H](CO)[C@@H](O)[C@H](O)[C@H]4O)[C@@H](O)[C@H](O)[C@H]3O)C[C@@H]1CC[C@@H]1[C@@H]2CC[C@]2(C)[C@@H](C3=CC(=O)OC3)CC[C@]12O |  | > 100 µM |  | > 95.8 µM |  | > 100 µM |  | > 100 µM |  | > 100 µM |  | > 89.1 µM |  | > 100 µM |  | > 100 µM |  | 33.2 µM |  | 28.1 µM
3 | CC[C@@H](C)/C=C(C)/C=C/C(=O)c1c(O)c(-c2ccc(OC(=O)[C@@]34CC[C@@](C)(C(=O)O3)C4(C)C)cc2)cn(O)c1=O | 20.4 µM | > 50 µM | 1.39 µM | > 50 µM | 2.46 µM | > 50 µM | 2.51 µM | > 50 µM | 1.64 µM | > 50 µM | 2.84 µM | > 50 µM | 1.83 µM | > 50 µM | 1.32 µM | 7.4 µM | 1.3 µM | 6.1 µM | 2.41 µM | > 50 µM
4 | C#C[C@@]1(O)[C@@H](CO)O[C@@H](n2cc(Br)c3c(Cl)ccnc32)[C@@H]1O | 0.217 µM | 0.874 µM | 1.08 µM | > 27 µM | 8.06 µM | > 100 µM | > 100 µM | > 100 µM | 40 µM | > 100 µM | 0.115 µM | 0.916 µM | 0.289 µM | 1.94 µM | 1.06 µM | > 100 µM | 0.357 µM | 11.1 µM | 1.86 µM | > 100 µM
5 | Cc1cc(O)ccc1C1=NN(c2ccc(S(N)(=O)=O)cc2)C(=O)CC1 | 23.5 µM and 52.1 µM | 50 µM and > 100 µM | 10.9 µM and 94.5 µM | 50 µM and > 100 µM | 0.994 µM and 1.73 µM | 4.35 µM and 5.48 µM | 25.7 µM and > 100 µM | 50 µM and > 100 µM | 6.97 µM and 16.1 µM | 50 µM and 67 µM | 11.1 µM and 18.5 µM | 50 µM and 75.5 µM | 10.9 µM and 21.8 µM | 50 µM and > 100 µM | 1.05 µM and 1.12 µM | 50 µM and 6.78 µM | 6.66 µM and 19.4 µM | 50 µM and > 100 µM | 14.5 µM and 22.5 µM | 50 µM and > 100 µM
6 | Oc1ccc2c(=S)cc(-c3ccc(Br)cc3)oc2c1O | 2.92 µM | 17.1 µM | 7.22 µM | 39.4 µM | 2.98 µM | > 100 µM | 2.94 µM | 28.7 µM | 2.44 µM | 8.93 µM | 1.69 µM | 6.11 µM | 1.81 µM | 8.4 µM | 2.54 µM | 38.1 µM | 1.98 µM | 7.28 µM | 1.52 µM | 6.38 µM
7 | C=C1C(=O)O[C@H]2[C@H]1CC/C(COC(=O)c1cccnc1N)=C\CC[C@@]1(C)O[C@@H]21 | 3.72 µM | 19.2 µM | 10.1 µM | 24.4 µM | 2.58 µM | 12 µM | 2.01 µM | 8.85 µM | 3.77 µM | 14.5 µM | 0.282 µM | 2.63 µM | 2.32 µM | 6.9 µM | 0.539 µM | 10.4 µM | 2.56 µM | 8.74 µM | 5.56 µM | 24.5 µM
8 | Cc1ccc(N(C=O)c2c([N+](=O)[O-])cc([N+](=O)[O-])c3c2=[N+]([O-])CN=3)cc1 |  | 47.3 µM |  | > 100 µM |  | > 100 µM |  | > 100 µM |  | 79.9 µM |  | 60.1 µM |  | 54.5 µM |  | > 100 µM |  | > 100 µM |  | 68.1 µM
9 | CN1CCN(CCCNC(=O)c2c3c(n4ccccc24)C(=O)c2ncccc2C3=O)CC1 | 1.37 µM | 9 µM | 2.67 µM | 14.1 µM | 0.295 µM | 0.619 µM | 4.57 µM | 19.1 µM | 1.48 µM | 6.54 µM | 3.03 µM | 13.4 µM | 1 µM | > 80 µM | 0.529 µM | > 26.2 µM | 1.99 µM | 6.56 µM | 0.674 µM | 3.08 µM
10 | Cn1ncc(C#N)c1-c1ccc2c(c1)CN([C@H](CN)Cc1cccc(F)c1)C2=O | 0.393 µM | > 70.5 µM | 13.6 µM | 65.3 µM | 7.56 µM | > 67.7 µM | 3.72 µM | > 83.2 µM | 0.693 µM | > 86.4 µM | 0.134 µM | 1.67 µM | 20.9 µM | > 100 µM | 17.2 µM | 50.7 µM | 0.193 µM | 8.74 µM | 20 µM | > 100 µM
11 | CC(C)(C)[Si](C)(C)OCC1OC(n2cnc3c(=O)[nH]cnc32)CC1O (stereo not given) |  | > 100 µM |  | > 100 µM |  | > 100 µM |  | > 100 µM |  | > 100 µM |  | > 100 µM |  | > 100 µM |  | > 100 µM |  | > 100 µM |  | > 100 µM
12 | NC(=O)c1c(NC(=O)c2cccs2)sc2c1CCC(=O)C2 | 0.627 µM | > 100 µM | 3.96 µM | 48.3 µM | 2.95 µM | 10.6 µM | 4.52 µM | > 100 µM | 2.28 µM | > 100 µM | 1.38 µM | 4 µM | 1.99 µM | 6.28 µM | 1.43 µM | > 100 µM | 1.54 µM | 5.06 µM | 1.83 µM | 7.34 µM
13 | O=C1/C(=C\c2ccc(F)cc2)CN(C(=O)c2ccccc2F)C/C1=C\c1ccc(F)cc1 | 1.62 µM | 4.89 µM | 3.41 µM | 12.8 µM | 0.547 µM | 2.06 µM | 1.82 µM | 3.36 µM | 1.27 µM | 2.58 µM | 1.86 µM | 5.63 µM | 1.83 µM | 3.95 µM | 0.32 µM | 3.03 µM | 1.72 µM | 3.2 µM | 2.09 µM | 4.91 µM
14 | COc1cc(OCc2ccccc2)c2c(CCC(=O)O)cc(=O)oc2c1 (tested in a mixture with another compound) |  | > 100 µM |  | > 100 µM |  | > 100 µM |  | 99.9 µM |  | > 100 µM |  | > 100 µM |  | > 100 µM |  | > 100 µM |  | > 100 µM |  | > 100 µM
15 | CCc1nc(C)cn1C(=O)OCc1nc2nc(Cl)nc(N3CCOCC3)c2[nH]1 | 1.25 µM | 3.01 µM | 1.84 µM | 4.11 µM | 1.36 µM | 2.71 µM | 1.78 µM | 3.2 µM | 1.63 µM | 3.42 µM | 0.88 µM | 2.41 µM | 1.39 µM | 2.83 µM | 0.288 µM | > 100 µM | 1.27 µM | 2.54 µM | 1.55 µM | 3.35 µM
16 | COC(=O)c1c[nH]c2cc(OC(C)C)c(OC(C)C)cc2c1=O | > 100 µM | > 100 µM | > 100 µM | > 100 µM | > 100 µM | > 100 µM | > 100 µM | > 100 µM | > 100 µM | > 100 µM | > 100 µM | > 100 µM | > 100 µM | > 100 µM | > 100 µM | > 100 µM | > 100 µM | > 100 µM | > 100 µM | > 100 µM
